Values quoted from earlier work, collected in US12472143B2, “Blend compositions for oral administration as a rapidly dissolving powder and/or suspension” (MARENDA PHARMACEUTICALS LLC, priority 2017, dated 2025).

SMILES: CC(C)Cc1ccc(C(C)C(=O)O)cc1 (stereo not shown) [Ibuprofen]
- solubility in water: sparingly soluble
